Source: US6380181B1, “Synthetic catechol derivatives, method for production and use thereof” (priority 1996, dated 2002)
In brackets after ≈: the same amount, converted by molar mass. Like-named read-outs stand apart in the source and are kept apart here.

Legend:
Format in all cases: cell-based
[1] = test system: Pseudomonas aeruginosa SG 137 (carbenicillin-resistant); assay: Agar diffusion test; conditions: concentration 100 μg/ml, P. aeruginosa SG 137
[2] = test system: Pseudomonas aeruginosa KW 799 WT (wild type); assay: Agar diffusion test; conditions: concentration 100 μg/ml, P. aeruginosa KW799/WT
[3] = test system: Pseudomonas aeruginosa KW 799/61 (penetration mutant); conditions: concentration 100 μg/ml; P. aeruginosa KW799/61
[4] = test system: E. coli DC2 (penetration mutant); conditions: concentration 100 μg/ml
[5] = test system: E. coli DC0 (wild type); assay: Agar diffusion test; conditions: concentration 100 μg/ml
[6] = test system: Stenotrophomonas maltophilia GN 12873; assay: Agar diffusion test; conditions: concentration 100 μg/ml
[7] = test system: Salmonella gallinarum ATCC 9184; conditions: concentration 100 μg/ml, Salmonella galinarum ATCC 9184
[8] = test system: E. coli ATCC 25922; assay: Microdilution test (MIC)
Method: (§1) The minimum inhibiting concentrations (MICs) were determined for the following bacterial strains: Pseudomonas aeruginosa NCTC 10701, NCTC 10662, SG 137, ATCC 27853, KW 799 WT and KW 799/61, E. coli DCO, DC2 and ATCC 25922, Serratia marcescens SG 621; Salmonella gallinarum ATCC 9184, Klebsiella pneumoniae ATCC 10031 and SG 117.

[9] = test system: Klebsiella pneumoniae ATCC 10031; assay: Microdilution test (MIC)
Method: as §1

[10] = test system: Pseudomonas aeruginosa NCTC 10662; assay: Microdilution test (MIC); conditions: P. aeruginosa NCTC 10662
Method: as §1

[11] = test system: Pseudomonas aeruginosa SG 137; assay: Microdilution test (MIC); conditions: P. aeruginosa SG 137
Method: as §1

[12] = test system: Serratia marcescens SG 621; assay: Microdilution test (MIC)
Method: as §1

[13] = test system: E. coli DC0; assay: Microdilution test (MIC); conditions: E. coli DC0
Method: as §1
(§2) With the test germs KW 799/WT and /61 of Pseudomonas and DCO and DC2 of E. coli, the effect of improved penetration capacity on the efficacy of the substances was investigated.

[14] = test system: Pseudomonas aeruginosa KW 799 WT; assay: Microdilution test (MIC); conditions: P. aeruginosa KW 799/WT
Method: as §1, §2

[15] = test system: Pseudomonas aeruginosa KW 799/61; assay: Microdilution test (MIC)
Method: as §1, §2

[16] = test system: E. coli DC2; assay: microbe, parasite or virus in culture
Method: as §1, §2

[17] = test system: Stenotrophomonas maltophilia GN 12873; assay: Microdilution test (MIC)
[18] = test system: Pseudomonas aeruginosa ATCC 27853 (wild type); assay: Agar diffusion test; conditions: concentration 100 μg/ml; P. aeruginosa ATCC 27853
[19] = test system: Klebsiella pneumoniae ATCC 10031; assay: Agar diffusion test; conditions: concentration 100 μg/ml
[20] = test system: Klebsiella pneumoniae SG 117; assay: Agar diffusion test; conditions: concentration 100 μg/ml
[21] = test system: Pseudomonas aeruginosa ATCC 27853; assay: Microdilution test (MIC); conditions: P. aeruginosa ATCC 27853
Method: as §1

Row | SMILES | inhibition spot diameter in the agar diffusion test [3] | MIC values, microdilution test [9] | MIC values, microdilution test [11] | MIC values, microdilution test [12] | MIC values, microdilution test [13] | MIC values, microdilution test [14] | MIC values, microdilution test [15] | inhibition spot diameter in the agar diffusion test [1] | inhibition spot diameter in the agar diffusion test [2] | inhibition spot diameter in the agar diffusion test [4] | inhibition spot diameter in the agar diffusion test [5] | inhibition spot diameter in the agar diffusion test [6] | inhibition spot diameter in the agar diffusion test [7] | further results
1 | CC(=O)Oc1cccc(C(=O)NCCCC[C@H](NC(=O)c2cccc(OC(C)=O)c2OC(C)=O)C(=O)N[C@@H](C(=O)N[C@@H]2C(=O)N3[C@@H]2SC(C)(C)[C@@H]3C(=O)O)c2ccccc2)c1OC(C)=O [Substance 31, N-[L-2,6-bis-(2,3-diacetoxybenzoylamino)-hexanoyl]-ampicillin] | 37 mm | 0.4 µg/mL (≈ 0.436 µM) | 0.1 µg/mL (≈ 0.109 µM) | 25 µg/mL (≈ 27.2 µM) | 12.5 µg/mL (≈ 13.6 µM) | 0.78 µg/mL (≈ 0.85 µM) | 0.2 µg/mL (≈ 0.218 µM) | – | – | – | – | – | – | inhibition spot diameter in the agar diffusion test ([1]; listed as 31): 28 mm; inhibition spot diameter in the agar diffusion test ([2]; listed as 31): 27 mm; inhibition spot diameter in the agar diffusion test ([4]; listed as 31): 33 mm; inhibition spot diameter in the agar diffusion test ([5]; listed as 31): 27 mm; inhibition spot diameter in the agar diffusion test ([6]; listed as 31): 23 mm; inhibition spot diameter in the agar diffusion test ([7]; listed as 31): 29 mm; MIC values, microdilution test ([8]; listed as 31): 0.78 µg/mL (≈ 0.85 µM); MIC values, microdilution test ([10]; listed as 31): 6.25 µg/mL (≈ 6.81 µM); MIC values, microdilution test [16]: 0.2 µg/mL (≈ 0.218 µM); MIC values, microdilution test ([17]; listed as 31): 0.4 µg/mL (≈ 0.436 µM)
2 | CC(=O)OC[C@H](NC(=O)c1cccc(OC(C)=O)c1OC(C)=O)C(=O)N[C@@H](C(=O)N[C@@H]1C(=O)N2[C@@H]1SC(C)(C)[C@@H]2C(=O)O)c1ccccc1 [Substance 32, N-[L-3-Acetoxy-2-(2,3-diacetoxybenzoylamino)-propionyl]-ampicillin] | 32 mm | – | 1.56 µg/mL (≈ 2.23 µM) | 25 µg/mL (≈ 35.8 µM) | 12.5 µg/mL (≈ 17.9 µM) | 1.56 µg/mL (≈ 2.23 µM) | 0.4 µg/mL (≈ 0.572 µM) | 16 mm | 25 mm | 28 mm | 22 mm | 19 mm | 28 mm | –
3 | COC(=O)Oc1cccc(C(=O)N(C)c2ccc(C(=O)N[C@@H](C(=O)N[C@@H]3C(=O)N4[C@@H]3SC(C)(C)[C@@H]4C(=O)O)c3ccccc3)cc2)c1OC(=O)OC [Substance Na-37, N-{4-[(2,3-di-methoxycarbonyloxy-benzoyl)-methyl-amino]-benzoyl}-ampicillin] | 35 mm | 3.12 µg/mL (≈ 4.25 µM) | 0.4 µg/mL (≈ 0.544 µM) | – | – | – | – | 22 mm | 28 mm | 33 mm | 27 mm | 16 mm | 29 mm | inhibition spot diameter in the agar diffusion test [18]: 21 mm; inhibition spot diameter in the agar diffusion test [19]: 22 mm; inhibition spot diameter in the agar diffusion test [20]: 19 mm; MIC values, microdilution test [8]: 3.12 µg/mL (≈ 4.25 µM); MIC values, microdilution test [21]: 3.12 µg/mL (≈ 4.25 µM); MIC values, microdilution test [10]: 12.5 µg/mL (≈ 17 µM); MIC values, microdilution test [17]: 6.25 µg/mL (≈ 8.51 µM)
